Test results as given in PubChem BioAssay AID330 (DTP/NCI, 2004).
Values joined by “and” are separate entries in the source; they are usually repeats but may differ in a detail not shown here. Equal entries are not always repeated. Toxic doses and inconclusive results are not listed.

Tested on: P388 leukemia ip, CD2F1 mice, survival T/C
Assay: NCI In Vivo Anticancer Drug Screen. Data for tumor model P388 Leukemia (intraperitoneal) in CD2F1 (CDF1) mice
Settings: endpoint: median survival time, higher = longer survival
How it was run: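 Mice carrying the transplanted tumor received test compound or vehicle. Survival was recorded in each group, and the value is the treated-group measurement divided by that of the vehicle-treated control group.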

[1] = dose: 50.0 mg/kg/injection, schedule: Q01DX009 (ip), vehicle: saline
[2] = dose: 100.0 mg/kg/injection, schedule: Q01DX009 (ip), vehicle: saline
[3] = dose: 100.0 mg/kg/injection, schedule: Q04DX003 (ip), vehicle: saline
[4] = dose: 200.0 mg/kg/injection, schedule: Q01DX009 (ip), vehicle: saline
[5] = dose: 200.0 mg/kg/injection, schedule: Q04DX003 (ip), vehicle: saline
[6] = dose: 400.0 mg/kg/injection, schedule: Q04DX003 (ip), vehicle: saline
[7] = dose: 12.5 mg/kg/injection, schedule: Q01DX009 (ip), vehicle: Klucel (hydroxypropylcellulose) (HPC)
[8] = dose: 25.0 mg/kg/injection, schedule: Q01DX009 (ip), vehicle: Klucel (hydroxypropylcellulose) (HPC)
[9] = dose: 50.0 mg/kg/injection, schedule: Q01DX009 (ip), vehicle: saline with Tween-80
[10] = dose: 100.0 mg/kg/injection, schedule: Q01DX009 (ip), vehicle: saline with Tween-80
[11] = dose: 200.0 mg/kg/injection, schedule: Q01DX009 (ip), vehicle: saline with Tween-80
[12] = dose: 50.0 mg/kg/injection, schedule: Q01DX005 (ip), vehicle: Klucel (hydroxypropylcellulose) (HPC)
[13] = dose: 100.0 mg/kg/injection, schedule: Q01DX005 (ip), vehicle: Klucel (hydroxypropylcellulose) (HPC)
[14] = dose: 200.0 mg/kg/injection, schedule: Q01DX005 (ip), vehicle: Klucel (hydroxypropylcellulose) (HPC)
[15] = dose: 12.5 mg/kg/injection, schedule: Q01DX009 (ip), vehicle: saline with Tween-80
[16] = dose: 25.0 mg/kg/injection, schedule: Q01DX009 (ip), vehicle: saline with Tween-80
[17] = dose: 100.0 mg/kg/injection, schedule: Q04DX002 (ip), vehicle: saline with Tween-80
[18] = dose: 200.0 mg/kg/injection, schedule: Q04DX002 (ip), vehicle: saline with Tween-80
[19] = dose: 400.0 mg/kg/injection, schedule: Q04DX002 (ip), vehicle: saline with Tween-80
[20] = dose: 60.0 mg/kg/injection, schedule: Q01DX005 (ip), vehicle: saline with Tween-80

SMILES: NC(Cc1cccc(NP(=S)(N2CC2)N2CC2)c1)C(=O)O (centres undefined)
- T/C (dose: 12.5 mg/kg/injection, schedule: Q04DX003 (ip), vehicle: saline): 109 % of control
- T/C (dose: 25.0 mg/kg/injection, schedule: Q04DX003 (ip), vehicle: saline): 118 % of control
- T/C [1]: 159 % of control
- T/C (dose: 50.0 mg/kg/injection, schedule: Q04DX003 (ip), vehicle: saline with Tween-80): 103 % of control
- T/C (dose: 75.0 mg/kg/injection, schedule: Q04DX003 (ip), vehicle: saline with Tween-80): 92 % of control
- T/C [2]: 181 % of control
- T/C [3]: 183 % of control
- T/C [4]: 209 % of control
- T/C [5]: 225 % of control
- T/C (dose: 264.0 mg/kg/injection, schedule: Q04DX003 (ip), vehicle: saline): 195 % of control
- T/C [6]: 245 % of control and 250 % of control

SMILES: COc1c2occc2c(OC)c2/c(=N/O)cc(C)oc12
- T/C [1]: 107 % of control
- T/C [2]: 98 % of control
- T/C [4]: 97 % of control

SMILES: CCCCNc1cc(C(F)(F)F)cc(N)c1N
- T/C (dose: 50.0 mg/kg/injection, schedule: Q01DX005 (ip), vehicle: saline + Tween-80 + alcohol): 105 % of control
- T/C (dose: 100.0 mg/kg/injection, schedule: Q01DX005 (ip), vehicle: saline + Tween-80 + alcohol): 108 % of control
- T/C (dose: 200.0 mg/kg/injection, schedule: Q01DX005 (ip), vehicle: saline + Tween-80 + alcohol): 109 % of control

SMILES: CCCC(C)C(CC)C(=O)NC(N)=O (centres undefined)
- T/C [7]: 101 % of control
- T/C [8]: 102 % of control
- T/C (dose: 50.0 mg/kg/injection, schedule: Q01DX009 (ip), vehicle: Klucel (hydroxypropylcellulose) (HPC)): 98 % of control
- T/C (dose: 100.0 mg/kg/injection, schedule: Q01DX009 (ip), vehicle: Klucel (hydroxypropylcellulose) (HPC)): 101 % of control

SMILES: CCOCc1cnc(C)nc1N
- T/C [9]: 110 % of control
- T/C [10]: 120 % of control
- T/C [11]: 110 % of control

SMILES: COc1cc(/C=C2\SC(=S)N(c3ccc(Cl)c(Cl)c3)C2=O)ccc1O
- T/C [12]: 89 % of control
- T/C [13]: 86 % of control
- T/C [14]: 89 % of control

SMILES: O=C(N/N=C\c1ccc(N(CCCl)CCCl)cc1)c1cccnc1
- T/C [7]: 107 % of control
- T/C [8]: 107 % of control

SMILES: COc1cccc2c1C(=O)c1c(O)c3c(c(O)c1C2=O)C[C@@](O)(CO)C[C@@H]3OC1CC(N)C(O)C(C)O1 (some centres undefined)
- T/C (dose: 0.56 mg/kg/injection, schedule: Q04DX003 (ip), vehicle: water): 109 % of control
- T/C (dose: 0.78 mg/kg/injection, schedule: Q01DX009 (ip), vehicle: water): 167 % of control
- T/C (dose: 1.13 mg/kg/injection, schedule: Q04DX003 (ip), vehicle: water): 104 % of control
- T/C (dose: 1.56 mg/kg/injection, schedule: Q01DX009 (ip), vehicle: water): 167 % of control and 183 % of control
- T/C (dose: 2.25 mg/kg/injection, schedule: Q04DX003 (ip), vehicle: water): 109 % of control and 118 % of control
- T/C (dose: 4.5 mg/kg/injection, schedule: Q04DX003 (ip), vehicle: water): 115 % of control and 123 % of control
- T/C (dose: 6.25 mg/kg/injection, schedule: Q01DX009 (ip), vehicle: water): 88 % of control
- T/C (dose: 9.0 mg/kg/injection, schedule: Q04DX003 (ip), vehicle: water): 121 % of control
- T/C (dose: 18.0 mg/kg/injection, schedule: Q04DX003 (ip), vehicle: water): 119 % of control and 123 % of control
- T/C (dose: 36.0 mg/kg/injection, schedule: Q04DX003 (ip), vehicle: water): 97 % of control

SMILES: CCOC(=O)c1ccc(NC(=O)Nc2nc(C)cs2)cc1
- T/C (dose: 12.5 mg/kg/injection, schedule: Q01DX009 (ip), vehicle: distilled water + Tween-80): 104 % of control and 106 % of control
- T/C (dose: 25.0 mg/kg/injection, schedule: Q01DX009 (ip), vehicle: distilled water + Tween-80): 99 % of control and 107 % of control
- T/C (dose: 50.0 mg/kg/injection, schedule: Q01DX009 (ip), vehicle: distilled water + Tween-80): 109 % of control and 111 % of control
- T/C (dose: 100.0 mg/kg/injection, schedule: Q01DX009 (ip), vehicle: distilled water + Tween-80): 118 % of control

SMILES: O=S(=O)(O)c1ccc(CCCCCCl)cc1
- T/C [3]: 100 % of control
- T/C [5]: 95 % of control
- T/C [6]: 86 % of control

SMILES: CN(C(=S=O)c1ccc(Cl)cc1)c1ccccc1
- T/C (dose: 25.0 mg/kg/injection, schedule: Q01DX009 (ip), vehicle: suspension in saline): 101 % of control
- T/C (dose: 50.0 mg/kg/injection, schedule: Q01DX009 (ip), vehicle: suspension in saline): 95 % of control
- T/C [2]: 90 % of control
- T/C (dose: 100.0 mg/kg/injection, schedule: Q01DX009 (ip), vehicle: suspension in saline): 105 % of control and 97 % of control
- T/C [4]: 94 % of control

SMILES: O=[N+]([O-])c1cnc2ccccn12
- T/C [15]: 100 % of control
- T/C [16]: 93 % of control
- T/C [9]: 94 % of control
- T/C [10]: 95 % of control

SMILES: COC(=O)C1Cc2cncn2C(=O)N1 (centres undefined)
- T/C (dose: 8.0 mg/kg/injection, schedule: Q01DX009 (ip), vehicle: water): 108 % of control
- T/C (dose: 16.0 mg/kg/injection, schedule: Q01DX009 (ip), vehicle: water): 100 % of control
- T/C (dose: 32.0 mg/kg/injection, schedule: Q01DX009 (ip), vehicle: water): 103 % of control
- T/C (dose: 64.0 mg/kg/injection, schedule: Q01DX009 (ip), vehicle: water): 107 % of control

SMILES: Nn1nnc2cc3c(cc21)nnn3N
- T/C [17]: 109 % of control
- T/C [18]: 98 % of control
- T/C [19]: 95 % of control

SMILES: O=C1c2cccc([N+](=O)[O-])c2C(=O)c2nccnc21
- T/C (dose: 6.0 mg/kg/injection, schedule: Q01DX005 (ip), vehicle: Klucel (hydroxypropylcellulose) (HPC)): 100 % of control
- T/C (dose: 12.0 mg/kg/injection, schedule: Q01DX005 (ip), vehicle: Klucel (hydroxypropylcellulose) (HPC)): 107 % of control

SMILES: CCCCCCC1(C(=O)OCCN(CC)CC)CCCCC1
- T/C (dose: 50.0 mg/kg/injection, schedule: Q01DX005 (ip), vehicle: saline with Tween-80): 101 % of control
- T/C (dose: 100.0 mg/kg/injection, schedule: Q01DX005 (ip), vehicle: saline with Tween-80): 105 % of control

SMILES: CC(=O)OCC1OC(n2cccnc2=O)C(OC(C)=O)C1OC(C)=O (centres undefined)
- T/C (dose: 50.0 mg/kg/injection, schedule: Q01DX005 (ip), vehicle: saline): 107 % of control
- T/C (dose: 100.0 mg/kg/injection, schedule: Q01DX005 (ip), vehicle: saline): 107 % of control
- T/C (dose: 200.0 mg/kg/injection, schedule: Q01DX005 (ip), vehicle: saline): 107 % of control
- T/C (dose: 400.0 mg/kg/injection, schedule: Q01DX005 (ip), vehicle: saline): 102 % of control

SMILES: CC1(C)CC2(C)OC(=O)c3ccccc3N2C(=S)N1 (centres undefined)
- T/C (dose: 15.0 mg/kg/injection, schedule: Q01DX005 (ip), vehicle: saline with Tween-80): 94 % of control
- T/C (dose: 30.0 mg/kg/injection, schedule: Q01DX005 (ip), vehicle: saline with Tween-80): 95 % of control
- T/C [20]: 90 % of control and 96 % of control

SMILES: Brc1ccc2[nH]c3nc(N/N=C/c4cccnc4)nnc3c2c1
- T/C [17]: 93 % of control
- T/C [18]: 91 % of control
- T/C [19]: 99 % of control

SMILES: COC(=O)CCSC(=O)Nc1ccc(C)cc1
- T/C [12]: 101 % of control
- T/C [13]: 100 % of control
- T/C [14]: 105 % of control

SMILES: CCN(CC)c1ccc2cc(-c3nc4ccccc4[nH]3)c(=O)oc2c1
- T/C [15]: 96 % of control
- T/C [16]: 95 % of control
- T/C [9]: 88 % of control and 98 % of control
- T/C [10]: 95 % of control

SMILES: CC1=NN(C(=O)c2ccccn2)C(=O)C1N=Nc1ccc(S(=O)(=O)Nc2ncccn2)cc1 (centres undefined)
- T/C [20]: 102 % of control
- T/C (dose: 120.0 mg/kg/injection, schedule: Q01DX005 (ip), vehicle: saline with Tween-80): 105 % of control
- T/C (dose: 240.0 mg/kg/injection, schedule: Q01DX005 (ip), vehicle: saline with Tween-80): 94 % of control

SMILES: CNC(=O)Oc1ccc(C2CCCCC2)cc1
- T/C [9]: 107 % of control
- T/C [10]: 107 % of control
- T/C [11]: 88 % of control
